ChEMBL document CHEMBL1201862, “PubChem BioAssay data set” (2004)
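1) Cells in 96-well plates. 2) Compound, 48 h, 5 concentrations. 3) Linear interpolation between surrounding doses. 4) Unreached endpoint = highest concentration. Here, GI50 denotes the concentration required for 50% inhibition of growth.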 Activity calls are given as the source filed them. Cut-off read from the data, not from the text of the source: active = GI50 up to about 1.1 µM and inactive = higher.

Key:
Assay in all cases: NCI anticancer screen, dose series, 48 h
HCT-116 = tested on: HCT-116
HL-60 = tested on: HL-60
OVCAR-5 = tested on: OVCAR-5
SW-620 = tested on: SW-620
SNB-75 = tested on: SNB-75
OVCAR-4 = tested on: OVCAR-4
COLO 205 = tested on: COLO 205
EKVX = tested on: EKVX
CCRF-CEM = tested on: CCRF-CEM
NCI-H522 = tested on: NCI-H522
MDA-MB-231 = tested on: MDA-MB-231
MDA-N = tested on: MDA-N
TK-10 = tested on: TK-10
SR = tested on: SR
ACHN = tested on: ACHN
DU-145 = tested on: DU-145
UACC-257 = tested on: UACC-257
KM12 = tested on: KM12
NCI-H226 = tested on: NCI-H226

Row | SMILES | GI50 (HCT-116) | GI50 (HL-60) | GI50 (OVCAR-5) | GI50 (SW-620) | GI50 (SNB-75) | GI50 (OVCAR-4) | GI50 (COLO 205) | GI50 (EKVX) | GI50 (CCRF-CEM) | GI50 (NCI-H522) | GI50 (MDA-MB-231) | GI50 (MDA-N) | GI50 (TK-10) | GI50 (SR) | GI50 (ACHN) | GI50 (DU-145) | GI50 (UACC-257) | GI50 (KM12) | GI50 (NCI-H226)
1 | O=[N+]([O-])c1cc(Cc2cc([N+](=O)[O-])c3cccnc3c2O)c(O)c2ncccc12 | 3.35 µM (inactive) | 1.61 µM (inactive) | 24.8 µM (inactive) | 5.94 µM (inactive) | 7.18 µM (inactive) | 4.05 µM (inactive) | 19.7 µM (inactive) | 6.37 µM (inactive) | 1.77 µM (inactive) | 3.51 µM (inactive) | 3.4 µM (inactive) | 10.6 µM (inactive) | 12.4 µM (inactive) | 0.845 µM (active) | 5.6 µM (inactive) | 9.89 µM (inactive) | 2.65 µM (inactive) | 6.71 µM (inactive) | 16.6 µM (inactive)
2 | CCOC(=O)c1cc([N+](=O)[O-])cc([N+](=O)[O-])c1Sc1[nH]cnc2ncnc1-2 | 2.12 µM (inactive) | 1.94 µM (inactive) | 9.71 µM (inactive) | 2.42 µM (inactive) | 10.3 µM (inactive) | 1.03 µM (active) | 2.17 µM (inactive) | 5.08 µM (inactive) | 0.462 µM (active) | 1.55 µM (inactive) | 7.01 µM (inactive) | 1.82 µM (inactive) | 4.5 µM (inactive) | 2.38 µM (inactive) | 1.96 µM (inactive) | 1.31 µM (inactive) | 6.21 µM (inactive) | 5.25 µM (inactive) | 24.1 µM (inactive)
3 | CCn1c2ccc(C(=O)CCCN(C)C)cc2c2cc(C(=O)CCCN(C)C)ccc21 | 0.593 µM (active) | 1.75 µM (inactive) | 1.79 µM (inactive) | 0.53 µM (active) | 2.97 µM (inactive) | 1.18 µM (inactive) | 1.06 µM (active) | 1.79 µM (inactive) | 0.395 µM (active) | 3.04 µM (inactive) | 0.851 µM (active) | 2.05 µM (inactive) | 1.98 µM (inactive) | 1.13 µM (inactive) | 0.759 µM (active) | 2.52 µM (inactive) | 3.44 µM (inactive) | 1.18 µM (inactive) | 2.74 µM (inactive)
4 | CC(C)(C)C1CCC2c3c([nH]c4ccccc34)C3C(=O)N(c4cccc(Cl)c4)C(=O)C3C2C1 (configuration not stated) | 6.3 µM (inactive) | 3.01 µM (inactive) | 13.5 µM (inactive) | 9.62 µM (inactive) | 14.1 µM (inactive) | 14.6 µM (inactive) | 12 µM (inactive) | 11.5 µM (inactive) | 4.3 µM (inactive) | 15.8 µM (inactive) | 14.2 µM (inactive) | 11 µM (inactive) | 16.8 µM (inactive) | 4.36 µM (inactive) | 9.33 µM (inactive) | 11.7 µM (inactive) | 9.33 µM (inactive) | 5.01 µM (inactive) | 19 µM (inactive)
5 | CC(=O)c1ccc2c(c1)CC1(C2)Cc2ccccc2C1=O (configuration not stated) | 44.1 µM (inactive) | 25.1 µM (inactive) | > 100 µM (inactive) | > 100 µM (inactive) | 34.5 µM (inactive) | 31.4 µM (inactive) | 34 µM (inactive) | 24.2 µM (inactive) | 29.5 µM (inactive) | 21.5 µM (inactive) | 57.3 µM (inactive) | 45.1 µM (inactive) | 19.4 µM (inactive) | 20.8 µM (inactive) | 54 µM (inactive) | > 100 µM (inactive) | 15.5 µM (inactive) | 43.3 µM (inactive) | 85.3 µM (inactive)
6 | COc1ccc2o/c(=N\c3ccc(F)cc3)c(C(N)=O)cc2c1 | 22.8 µM (inactive) | > 100 µM (inactive) | > 100 µM (inactive) | > 100 µM (inactive) | 12.6 µM (inactive) | 27.9 µM (inactive) | > 100 µM (inactive) | > 100 µM (inactive) | > 100 µM (inactive) | 28.9 µM (inactive) | 16.3 µM (inactive) | > 100 µM (inactive) | 21.6 µM (inactive) | > 100 µM (inactive) | 30.5 µM (inactive) | > 100 µM (inactive) | > 100 µM (inactive) | > 100 µM (inactive) | 36.6 µM (inactive)
7 | COC(=O)C1(C)CCCC2(C)C3CCC4CC3(C=C4CO)CCC12 (configuration not stated) | 30.6 µM (inactive) | 20.6 µM (inactive) | > 100 µM (inactive) | 69.2 µM (inactive) | 37.2 µM (inactive) | 68.2 µM (inactive) | 74.8 µM (inactive) | 41.2 µM (inactive) | 41.7 µM (inactive) | 34.2 µM (inactive) | 73.5 µM (inactive) | 46.7 µM (inactive) | 91.6 µM (inactive) | 27.6 µM (inactive) | 41 µM (inactive) | > 100 µM (inactive) | 41.9 µM (inactive) |  | 53.2 µM (inactive)
